In the supplement of paper PMC6045584:
± gives the standard deviation of the averaged measurements.

Experiments:
[1] = compound: CN(C)CC[C@H](CSc1ccccc1)Nc1ccc(S(=O)(=O)NC(=O)c2ccc(N3CCN(Cc4ccccc4-c4ccc(Cl)cc4)CC3)cc2)cc1[N+](=O)[O-] [ABT-737]; experiment: surviving fraction relative to DMSO-only wells; higher = less growth inhibition; settings: exposure time: 5 days
Outline: (§1)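 Surviving fraction was calculated by normalising CellTiter-Glo luminescence to the median of DMSO-only wells. Tumour cell lines in log phase were seeded in 384-well plates at 250–500 cells per well, and 24 hours later were exposed continuously for five days to inhibitors at 0.5, 1, 5, 10, 50, 100, 500 and 1000 nM.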

[2] = compound: CS(=O)(=O)CCNCc1ccc(-c2ccc3ncnc(Nc4ccc(OCc5cccc(F)c5)c(Cl)c4)c3c2)o1 [LAPATINIB]; experiment: as above; settings: exposure time: 5 days
Outline: as §1

Test System | surviving fraction ([1]; 0.5 nM) | surviving fraction ([1]; 1 nM) | surviving fraction ([1]; 5 nM) | surviving fraction ([1]; 10 nM) | surviving fraction ([1]; 50 nM) | surviving fraction ([1]; 100 nM) | surviving fraction ([1]; 500 nM) | surviving fraction ([1]; 1000 nM) | surviving fraction ([2]; 0.5 nM) | surviving fraction ([2]; 1 nM) | surviving fraction ([2]; 5 nM) | surviving fraction ([2]; 10 nM) | surviving fraction ([2]; 50 nM) | surviving fraction ([2]; 100 nM) | surviving fraction ([2]; 500 nM) | surviving fraction ([2]; 1000 nM)
ZR751 BREAST | 1.08 ± 0.16 | 1.1 ± 0.096 | 1.14 ± 0.17 | 1.02 ± 0.052 | 1.07 ± 0.071 | 1.03 ± 0.076 | 1.07 ± 0.095 | 1.03 ± 0.15 | 0.879 ± 0.09 | 0.898 ± 0.17 | 1.01 ± 0.08 | 1.1 ± 0.23 | 0.816 ± 0.069 | 0.785 ± 0.031 | 0.662 ± 0.038 | 0.746 ± 0.062
22RV1 PROSTATE | 0.997 ± 0.07 | 1.13 ± 0.22 | 1.03 ± 0.063 | 0.995 ± 0.079 | 1.07 ± 0.086 | 1.03 ± 0.13 | 1.1 ± 0.042 | 0.96 ± 0.097 | 1.01 ± 0.05 | 1.1 ± 0.096 | 0.954 ± 0.076 | 1.01 ± 0.1 | 1.04 ± 0.034 | 1.07 ± 0.085 | 1.08 ± 0.12 | 1.11 ± 0.059
HT1080 SOFT TISSUE | 1.06 ± 0.045 | 1.06 ± 0.018 | 1.05 ± 0.022 | 1.07 ± 0.045 | 1 ± 0.028 | 1.05 ± 0.029 | 1.01 ± 0.032 | 1.02 ± 0.028 | 0.997 ± 0.044 | 1.06 ± 0.013 | 1.02 ± 0.017 | 1.05 ± 0.016 | 1.04 ± 0.016 | 1.02 ± 0.048 | 1.01 ± 0.021 | 1.05 ± 0.076
SG28 HEADNECK | 1.25 ± 0.068 | 1.17 ± 0.064 | 1.02 ± 0.07 | 1.081 ± 0.0014 | 1.036 ± 0.0064 | 1.09 ± 0.021 | 1.13 ± 0.14 | 1.04 ± 0.016 | 0.979 ± 0.1 | 1.07 ± 0.03 | 0.851 ± 0.11 | 1.03 ± 0.042 | 0.764 ± 0.043 | 0.775 ± 0.079 | 0.599 ± 0.057 | 0.563 ± 0.021
MG63 BONE | 1.08 ± 0.034 | 1.07 ± 0.024 | 1.12 ± 0.047 | 1.1 ± 0.05 | 1.11 ± 0.033 | 1.09 ± 0.058 | 1.07 ± 0.016 | 1.06 ± 0.04 | 0.98 ± 0.029 | 1.04 ± 0.027 | 1.06 ± 0.035 | 1.07 ± 0.035 | 1.04 ± 0.039 | 1.08 ± 0.023 | 1.09 ± 0.017 | 1.11 ± 0.038
NCIH441 LUNG | 1.19 ± 0.027 | 1.22 ± 0.05 | 1.115 ± 0.0076 | 1.11 ± 0.052 | 1.11 ± 0.045 | 1.12 ± 0.077 | 1.11 ± 0.086 | 1.06 ± 0.15 | 1.06 ± 0.071 | 1.07 ± 0.12 | 1.08 ± 0.059 | 1.17 ± 0.067 | 1.03 ± 0.053 | 1.09 ± 0.043 | 1 ± 0.061 | 1.18 ± 0.054
COLO320DM LARGE INTESTINE | 1.09 ± 0.057 | 1.13 ± 0.085 | 1.04 ± 0.14 | 1.03 ± 0.12 | 1.19 ± 0.083 | 1.12 ± 0.03 | 1.21 ± 0.13 | 1.13 ± 0.055 | 1.01 ± 0.08 | 1.09 ± 0.016 | 1.14 ± 0.026 | 1.2 ± 0.082 | 1.06 ± 0.015 | 1.15 ± 0.083 | 1.1 ± 0.05 | 1.12 ± 0.075
HCC1954 BREAST | 1.09 ± 0.11 | 1.02 ± 0.092 | 1.21 ± 0.047 | 1.25 ± 0.033 | 0.878 ± 0.17 | 0.917 ± 0.26 | 0.674 ± 0.15 | 0.564 ± 0.092 | 0.905 ± 0.087 | 1.08 ± 0.058 | 1.04 ± 0.023 | 1.01 ± 0.12 | 0.823 ± 0.037 | 0.804 ± 0.092 | 0.387 ± 0.016 | 0.387 ± 0.039
SIHA CERVIX | 1.02 ± 0.017 | 1.1 ± 0.052 | 1.12 ± 0.033 | 1.08 ± 0.14 | 1.14 ± 0.056 | 1.2 ± 0.087 | 1.19 ± 0.056 | 1.14 ± 0.043 | 1.05 ± 0.033 | 1.14 ± 0.021 | 1.06 ± 0.02 | 1.11 ± 0.037 | 1.03 ± 0.031 | 1.02 ± 0.086 | 1.05 ± 0.06 | 1.1 ± 0.042
HELA CERVIX | 1.05 ± 0.04 | 1.05 ± 0.04 | 1.06 ± 0.017 | 1.06 ± 0.047 | 1.14 ± 0.085 | 1.11 ± 0.084 | 1.2 ± 0.13 | 1.16 ± 0.07 | 1.08 ± 0.1 | 1.23 ± 0.065 | 1.05 ± 0.043 | 1.04 ± 0.038 | 1.1 ± 0.029 | 1.15 ± 0.12 | 1.16 ± 0.09 | 1.16 ± 0.037
CAL72 BONE | 1.04 ± 0.13 | 1.06 ± 0.12 | 1.06 ± 0.1 | 1.05 ± 0.12 | 1.11 ± 0.14 | 1.06 ± 0.13 | 1.08 ± 0.12 | 1.06 ± 0.17 | 1.13 ± 0.081 | 1.1 ± 0.061 | 1.16 ± 0.083 | 1.11 ± 0.055 | 1.11 ± 0.015 | 1.12 ± 0.096 | 1.02 ± 0.077 | 0.951 ± 0.17
MDAMB468 BREAST | 1.14 ± 0.06 | 1.08 ± 0.018 | 1.08 ± 0.037 | 1.11 ± 0.066 | 1.1 ± 0.045 | 1.11 ± 0.11 | 1.08 ± 0.03 | 1.09 ± 0.12 | 1.07 ± 0.019 | 1.01 ± 0.042 | 1.13 ± 0.054 | 1.09 ± 0.08 | 1.086 ± 0.01 | 1.1 ± 0.051 | 0.948 ± 0.043 | 0.785 ± 0.058
LM7 BONE | 0.97 ± 0.065 | 1.03 ± 0.09 | 1.11 ± 0.04 | 1.1 ± 0.096 | 1.08 ± 0.061 | 1.13 ± 0.057 | 0.921 ± 0.095 | 0.905 ± 0.043 | 0.936 ± 0.046 | 1.07 ± 0.079 | 1.1 ± 0.034 | 1.1 ± 0.042 | 0.99 ± 0.057 | 1.06 ± 0.02 | 0.991 ± 0.022 | 0.955 ± 0.041
143B BONE | 1.08 ± 0.042 | 1.09 ± 0.027 | 1.14 ± 0.092 | 1.11 ± 0.071 | 1.13 ± 0.054 | 1.115 ± 0.0057 | 1.12 ± 0.037 | 1.14 ± 0.064 | 0.986 ± 0.065 | 1.07 ± 0.057 | 0.931 ± 0.14 | 0.967 ± 0.11 | 1.01 ± 0.013 | 1.08 ± 0.11 | 1.02 ± 0.016 | 1.01 ± 0.021
CADOES1 SOFT TISSUE | 0.92 ± 0.1 | 0.85 ± 0.18 | 0.915 ± 0.1 | 0.874 ± 0.039 | 0.748 ± 0.081 | 0.679 ± 0.068 | 0.679 ± 0.015 | 0.689 ± 0.049 | 0.959 ± 0.045 | 1.06 ± 0.096 | 0.976 ± 0.12 | 0.996 ± 0.16 | 0.958 ± 0.096 | 1.09 ± 0.097 | 1.13 ± 0.052 | 1.13 ± 0.094
NOS1 BONE | 1.07 ± 0.093 | 1.05 ± 0.085 | 1.32 ± 0.035 | 1.14 ± 0.048 | 1.19 ± 0.092 | 1.14 ± 0.048 | 1.09 ± 0.081 | 1.11 ± 0.17 | 1.16 ± 0.16 | 1.05 ± 0.12 | 1.11 ± 0.069 | 1.12 ± 0.033 | 1.13 ± 0.068 | 1.08 ± 0.13 | 1.03 ± 0.093 | 0.898 ± 0.029
MDAMB231 BREAST | 1 ± 0.031 | 0.99 ± 0.018 | 1.01 ± 0.014 | 1.01 ± 0.018 | 1.02 ± 0.041 | 1.01 ± 0.03 | 1 ± 0.018 | 0.941 ± 0.02 | 0.9471 ± 0.0072 | 1.01 ± 0.032 | 0.986 ± 0.029 | 0.9838 ± 0.0088 | 0.96 ± 0.019 | 1.02 ± 0.012 | 1.013 ± 0.0062 | 1.01 ± 0.021
HSSYII SYNOVIAL | 1.03 ± 0.064 | 0.999 ± 0.044 | 0.99 ± 0.043 | 0.972 ± 0.045 | 1.12 ± 0.054 | 0.859 ± 0.041 | 0.637 ± 0.017 | 0.54 ± 0.079 | 0.98 ± 0.042 | 0.943 ± 0.022 | 0.947 ± 0.051 | 0.973 ± 0.033 | 0.947 ± 0.064 | 1.04 ± 0.087 | 0.969 ± 0.034 | 0.927 ± 0.01
S68 BREAST | 1.25 ± 0.083 | 1.04 ± 0.045 | 1.04 ± 0.28 | 1.15 ± 0.047 | 1.26 ± 0.41 | 1.14 ± 0.27 | 0.848 ± 0.25 | 0.822 ± 0.14 | 1.12 ± 0.24 | 1.01 ± 0.2 | 1.17 ± 0.11 | 1.26 ± 0.22 | 1.07 ± 0.08 | 1.1 ± 0.33 | 0.71 ± 0.058 | 0.769 ± 0.032
